Counter-ions that a name gives are not always drawn.
Legend:
[1] = Stability test: anaerobic incubation with fresh rat cecal contents, 37° C.; type: in vitro ADME
Description: An important property of these stevioside analogs is their stability and resistance to conversion to steviol at the conditions of the mammalian gastrointestinal tract. […] At these conditions, no degradation to steviol occurs to a limit of detection of 0.13%.
Steviolbioside, 3-sulfopropyl ester, potassium salt prepared in Part B. was incubated anaerobically for three days at 37° C. with 5 wt% fresh rat cecal contents, at concentrations of 0.25, 0.5, and 1.0 mg/ml in sterile Krebs-Ringer 0.25M phosphate buffer (pH 7.4) containing 0.25 mg/ml dithiothreitol and 0.25 mg/ml α-D-glucose. […] No steviol (Rf =0.95; tR =31.3 min) was detected. After 3 days the bacterial cells were sedimented by centrifugation. The sediment was extracted (THF), as was the supernatant, after lyophilization. […] With a detection limit of […], as little as 0.03 and 0.13 percent degradation to steviol could have been detected for the sediment and supernatant fractions, respectively.

[2] = Taste test by a group of volunteers / sensory comparison; type: in vivo; details: for Ip, sample intensity relative to 10% sucrose: mean value(2 Sm), 12 judgements, stevioside 500 ppm, Example 1 534 ppm, saccharin 330 ppm
[3] = Use in comestibles (taste of sweetened beverages and gelatin); type: in vivo
Description: Based on the results of Part D, one can employ the compound of Part B as a sweetener for comestibles. In exemplary uses 0.08% by weight of the compound is dissolved in an unsweetened cola beverage, a like concentration of the compound is added to an unsweetened lemonade and to coffee. […] In two other cases, 0.04% by weight is added to coffee along with 0.02% by weight of saccharin and 3% by weight of sucrose, respectively. […] B.
Cups of coffee are prepared: To each is added 500 ppm by weight, basis solution, of one of each of the sweeteners prepared in Examples II-VIII. The coffees present a sweetened taste when sampled.
Gelatin, food color and fruit flavor are dissolved in water at levels suitable for forming a jelled food product. The solution is not sweet. The materials of Claims II-VIII are each added to separate samples in amounts of 600 ppm and the samples are cast into jelled products. The resulting gelatin products are sweet.

[4] = Taste test by a group of volunteers / sensory comparison; type: in vivo; details: for Pm, potency compared to sucrose = 1, molar basis / Pw, potency compared to sucrose = 1, weight basis / Taste Character, Bitter / Taste Character, Other / Taste Character, Salty / Taste Character, Sour / Taste Character, Sweet / Taste Character, Sweet/bitter, other: 12 judgements, stevioside 500 ppm, Example 1 534 ppm, saccharin 330 ppm; for taste of the material: concentration not given
Description: Steviolbioside, 3-sulfopropyl ester, potassium salt prepared in Part B. was dissolved in distilled water at a concentration of 0.2 wt% and tasted by a group of volunteers. […] The solution was diluted to 0.0534 wt% and retasted.

[5] = likelihood suggested by Wingard et al., 1980; cited from earlier work
[6] = Wingard et al., Experientia; cited from earlier work
[7] = Bridel et al., cited from earlier work
ATP synthetase = details: in cell mitochondria; Vignais 1966; cited from earlier work
[8] = likelihood suggested by Wingard et al., 1980; cited from earlier work; remark: listed apart in the source
[9] = Dorfman et al.; cited from earlier work
[10] = compared with material of Example I
[11] = 1000 ppm by weight in distilled water

| Structure (SMILES) | Ip, sample intensity relative to 10% sucrose [2] | Pm, potency compared to sucrose = 1, molar basis [4] | Pw, potency compared to sucrose = 1, weight basis [4] | Taste Character, Bitter [4] | Taste Character, Other [4] | Taste Character, Salty [4] | Taste Character, Sour [4] | Taste Character, Sweet [4] | Taste Character, Sweet/bitter, other [4] | taste of the material [4] | other results |
| --- | --- | --- | --- | --- | --- | --- | --- | --- | --- | --- | --- |
| C=C1C[C@@]23CC[C@H]4[C@@](C)(CCC[C@@]4(C)C(=O)OCCCS(=O)(=O)O)[C@@H]2CC[C@]1(O[C@@H]1O[C@H](CO)[C@@H](O)[C@H](O)[C@H]1O[C@@H]1O[C@H](CO)[C@@H](O)[C@H](O)[C@H]1O)C3 [Example I, Steviolbioside, 3-sulfopropyl ester, potassium salt] | 0.84(0.06) | 360(20) | 160(10) | 4(6) % | 4(4) % | 0(0) % | 0(0) % | 92(6) % | 92/8 | – | time within which all the initial ester was consumed ([1]; 5 wt% fresh rat cecal contents, 0.25, 0.5 and 1.0 mg/ml, pH 7.4, 37° C., anaerobic, TLC and HPLC): ≤ 24 h; steviol in THF extracts (HPLC) ([1]; after 3 days, sediment and supernatant extracts): none to be detectable; steviol detected (TLC and HPLC of incubation) ([1]; rat cecal contents, 37° C.): No steviol; degradation product formed ([1]; rat cecal contents, within 24 h, TLC and HPLC): apparently only the sulfopropyl ester of steviol; sweetness in comestibles, with co-sweetener ([3]; 0.04% by weight in coffee with 0.02% saccharin or 3% sucrose): sweetness is imparted; sweetness in comestibles ([3]; 0.08% by weight in unsweetened cola, unsweetened lemonade and coffee): sweetness is imparted; taste quality ([4]; 0.0534 wt%): very sucrose-like, having negligible off-flavors; sweetness equivalent ([4]; 0.0534 wt% in distilled water): 8-9 wt% sucrose; taste of solution ([4]; 0.2 wt% in distilled water): very intense sweet taste; taste compared with saccharin and stevioside ([4]; Table II): superior to the tastes of saccharin and stevioside itself |
| C=C1C[C@@]23CC[C@H]4[C@@](C)(CCC[C@@]4(C)C(=O)OCCCS(=O)(=O)O)[C@@H]2CC[C@]1(O[C@@H]1O[C@H](CO)[C@@H](O)[C@H](O)[C@H]1O[C@@H]1O[C@H](CO)[C@@H](O)[C@H](O)[C@H]1O)C3 [II, steviolbioside, 3-sulfopropyl ester, sodium salt] | – | – | – | – | – | – | – | – | – | – | stability properties evaluated as in Part C of Example I [1, 10]: same advantageous properties; use in comestibles evaluated as in Part E of Example I [3, 10]: same advantageous properties; taste properties evaluated as in Part D of Example I [4, 10]: same advantageous properties |
| C=C1C[C@@]23CC[C@H]4[C@@](C)(CCC[C@@]4(C)C(=O)OCCCCS(=O)(=O)O)[C@@H]2CC[C@]1(O[C@@H]1O[C@H](CO)[C@@H](O)[C@H](O)[C@H]1O[C@@H]1O[C@H](CO)[C@@H](O)[C@H](O)[C@H]1O)C3 [III, steviolbioside, 4-sulfobutyl ester, sodium salt] | – | – | – | – | – | – | – | – | – | sweet, like the material of Example I | – |
| O=C1NS(=O)(=O)c2ccccc21 [Saccharin, saccharin, reference compound] | 0.98(0.09) | 180(20) | 300(30) | 12(8) % | 3(2) % | 0(0) % | 0(0) % | 85(6) % | 85/15 | – | – |
| C=C1C[C@@]23CC[C@H]4[C@@](C)(CCC[C@@]4(C)C(=O)O[C@@H]4O[C@H](CO)[C@@H](O)[C@H](O)[C@H]4O)[C@@H]2CC[C@]1(O[C@@H]1O[C@H](CO)[C@@H](O)[C@H](O)[C@H]1O[C@@H]1O[C@H](CO)[C@@H](O)[C@H](O)[C@H]1O)C3 [Stevioside, stevioside] | 0.94(0.06) | 440(30) | 190(10) | 30(10) % | 8(5) % | 0(0) % | 0(0) % | 62(10) % | 62/38 | – | conversion to steviol in vivo [5]: largely converted to steviol in vivo; degradation to steviol [6]: essentially quantitative degradation to steviol; sweetness relative to sucrose [7]; 1931: about 300 times as sweet as sucrose; bitterness of taste [7]: substantial degree of bitterness |
| C=C1C[C@@]23CC[C@H]4[C@@](C)(CCC[C@@]4(C)C(=O)OCC(=O)O)[C@@H]2CC[C@]1(O[C@@H]1O[C@H](CO)[C@@H](O)[C@H](O)[C@H]1O[C@@H]1O[C@H](CO)[C@@H](O)[C@H](O)[C@H]1O)C3 [VII, steviolbioside, carboxymethyl ester, sodium salt] | – | – | – | – | – | – | – | – | – | sweet | – |
| C=C1C[C@@]23CC[C@H]4[C@@](C)(CCC[C@@]4(C)C(=O)OCCC(S(=O)(=O)O)S(=O)(=O)O)[C@@H]2CC[C@]1(O[C@@H]1O[C@H](CO)[C@@H](O)[C@H](O)[C@H]1O[C@@H]1O[C@H](CO)[C@@H](O)[C@H](O)[C@H]1O)C3 [VIII] | – | – | – | – | – | – | – | – | – | – | taste of solution [2, 11]: exceedingly sweet; sweetness intensity equal to sucrose solution [4, 11]: 10-12 % sucrose |
| C=C1C[C@@]23CC[C@H]4[C@@](C)(CCC[C@@]4(C)C(=O)OCCC(N)C(=O)O)[C@@H]2CC[C@]1(O[C@@H]1O[C@H](CO)[C@@H](O)[C@H](O)[C@H]1O[C@@H]1O[C@H](CO)[C@@H](O)[C@H](O)[C@H]1O)C3 (some centres unmarked) [VI] | – | – | – | – | – | – | – | – | – | sweet and sucrose like | – |
| C=C1C[C@@]23CC[C@H]4[C@@](C)(CCC[C@@]4(C)C(=O)OC(CCC(=O)O)C(=O)O)[C@@H]2CC[C@]1(O[C@@H]1O[C@H](CO)[C@@H](O)[C@H](O)[C@H]1O[C@@H]1O[C@H](CO)[C@@H](O)[C@H](O)[C@H]1O)C3 (some centres unmarked) [V] | – | – | – | – | – | – | – | – | – | sweet | – |
| C=C1C[C@@]23CC[C@H]4[C@@](C)(CCC[C@@]4(C)C(=O)O)[C@@H]2CC[C@]1(O)C3 [steviol] | – | – | – | – | – | – | – | – | – | – | inhibition of ATP synthetase compared with atractyligenin (ATP synthetase): even more potent inhibitor of ATP synthetase; absorption through the gastrointestinal tract wall [8]: completely absorbed; antiandrogenic effects [9]: antiandrogenic effects |

Reference: patent US4454290A, “Stevioside analogs” (Dynapol, priority 1981, dated 1984)
